Assay [1] in a line: Bitter tasting threshold was expressed as log 1/T. In kind it is functional.
Assay [2] addresses Angiotensin-converting enzyme (Homo sapiens, UniProt P12821). Put plainly: Biological activity was measured against Angiotensin I converting enzyme. Particulars: read-out: Log 1/IC50 (converted).
For assay [3], the target named is T1, Substance-K receptor (Rattus norvegicus, UniProt P16610).
T1 sequence (P16610 whole entry): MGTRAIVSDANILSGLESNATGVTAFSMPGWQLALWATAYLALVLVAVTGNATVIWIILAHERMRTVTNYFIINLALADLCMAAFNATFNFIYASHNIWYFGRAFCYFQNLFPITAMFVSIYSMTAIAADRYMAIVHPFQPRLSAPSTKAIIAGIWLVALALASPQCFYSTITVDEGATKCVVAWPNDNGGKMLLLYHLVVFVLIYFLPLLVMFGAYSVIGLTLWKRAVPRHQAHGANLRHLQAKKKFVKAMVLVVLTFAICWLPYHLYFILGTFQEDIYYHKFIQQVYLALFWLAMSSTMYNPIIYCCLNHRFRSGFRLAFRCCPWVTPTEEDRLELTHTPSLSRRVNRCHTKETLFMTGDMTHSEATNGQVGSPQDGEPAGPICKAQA
Put plainly: Antagonism against Tachykinin receptor 2 in rat vas deferens(RVD). The assay is classed as functional. To be noted: read-out: pA2 (converted).

The target of assay [4] is T2, Substance-K receptor (Mesocricetus auratus, UniProt P51144).
T2 sequence (P51144 whole entry): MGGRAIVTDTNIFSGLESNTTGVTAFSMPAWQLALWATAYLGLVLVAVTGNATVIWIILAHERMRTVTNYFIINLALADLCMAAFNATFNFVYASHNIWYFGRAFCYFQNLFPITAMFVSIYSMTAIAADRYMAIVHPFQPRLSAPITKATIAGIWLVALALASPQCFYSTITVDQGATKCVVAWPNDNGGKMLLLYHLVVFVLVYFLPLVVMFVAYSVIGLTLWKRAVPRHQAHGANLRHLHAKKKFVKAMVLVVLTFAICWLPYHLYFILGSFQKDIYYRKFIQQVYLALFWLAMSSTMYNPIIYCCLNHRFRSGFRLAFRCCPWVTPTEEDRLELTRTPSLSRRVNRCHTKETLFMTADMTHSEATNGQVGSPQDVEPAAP
Put plainly: Antagonist activity against Tachykinin receptor 2 was measured by Hamster isolated trachea(HT) assay. In kind it is functional, tissue-based. To be noted: read-out: pA2 (converted).

The target in assay [5] is T3, Substance-K receptor (Oryctolagus cuniculus, UniProt P79218).
T3 sequence (P79218 whole entry): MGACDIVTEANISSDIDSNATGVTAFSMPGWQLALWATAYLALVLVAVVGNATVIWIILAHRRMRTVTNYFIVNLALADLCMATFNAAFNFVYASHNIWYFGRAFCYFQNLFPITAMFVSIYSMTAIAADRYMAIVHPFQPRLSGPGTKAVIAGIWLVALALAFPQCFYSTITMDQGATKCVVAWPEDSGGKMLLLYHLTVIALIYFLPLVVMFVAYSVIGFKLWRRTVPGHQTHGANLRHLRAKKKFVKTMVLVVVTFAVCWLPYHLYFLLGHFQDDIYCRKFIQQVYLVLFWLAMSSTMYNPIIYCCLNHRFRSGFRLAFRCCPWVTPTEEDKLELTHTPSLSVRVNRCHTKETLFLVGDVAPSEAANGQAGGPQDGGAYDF
Put plainly: Antagonist activity against Tachykinin receptor 2 was measured by Rabbit pulmonary artery(RPA) assay. In kind it is functional. To be noted: read-out: pA2 (converted).

27 molecules from ChEMBL document CHEMBL1128468, “Amino acid side chain descriptors for quantitative structure-activity relationship studies of peptide analogues” (J Med Chem, 1995) can be followed below.

Peptide text beside a SMILES is read from it.

Angiotensin-converting enzyme, sequence (P12821 whole entry): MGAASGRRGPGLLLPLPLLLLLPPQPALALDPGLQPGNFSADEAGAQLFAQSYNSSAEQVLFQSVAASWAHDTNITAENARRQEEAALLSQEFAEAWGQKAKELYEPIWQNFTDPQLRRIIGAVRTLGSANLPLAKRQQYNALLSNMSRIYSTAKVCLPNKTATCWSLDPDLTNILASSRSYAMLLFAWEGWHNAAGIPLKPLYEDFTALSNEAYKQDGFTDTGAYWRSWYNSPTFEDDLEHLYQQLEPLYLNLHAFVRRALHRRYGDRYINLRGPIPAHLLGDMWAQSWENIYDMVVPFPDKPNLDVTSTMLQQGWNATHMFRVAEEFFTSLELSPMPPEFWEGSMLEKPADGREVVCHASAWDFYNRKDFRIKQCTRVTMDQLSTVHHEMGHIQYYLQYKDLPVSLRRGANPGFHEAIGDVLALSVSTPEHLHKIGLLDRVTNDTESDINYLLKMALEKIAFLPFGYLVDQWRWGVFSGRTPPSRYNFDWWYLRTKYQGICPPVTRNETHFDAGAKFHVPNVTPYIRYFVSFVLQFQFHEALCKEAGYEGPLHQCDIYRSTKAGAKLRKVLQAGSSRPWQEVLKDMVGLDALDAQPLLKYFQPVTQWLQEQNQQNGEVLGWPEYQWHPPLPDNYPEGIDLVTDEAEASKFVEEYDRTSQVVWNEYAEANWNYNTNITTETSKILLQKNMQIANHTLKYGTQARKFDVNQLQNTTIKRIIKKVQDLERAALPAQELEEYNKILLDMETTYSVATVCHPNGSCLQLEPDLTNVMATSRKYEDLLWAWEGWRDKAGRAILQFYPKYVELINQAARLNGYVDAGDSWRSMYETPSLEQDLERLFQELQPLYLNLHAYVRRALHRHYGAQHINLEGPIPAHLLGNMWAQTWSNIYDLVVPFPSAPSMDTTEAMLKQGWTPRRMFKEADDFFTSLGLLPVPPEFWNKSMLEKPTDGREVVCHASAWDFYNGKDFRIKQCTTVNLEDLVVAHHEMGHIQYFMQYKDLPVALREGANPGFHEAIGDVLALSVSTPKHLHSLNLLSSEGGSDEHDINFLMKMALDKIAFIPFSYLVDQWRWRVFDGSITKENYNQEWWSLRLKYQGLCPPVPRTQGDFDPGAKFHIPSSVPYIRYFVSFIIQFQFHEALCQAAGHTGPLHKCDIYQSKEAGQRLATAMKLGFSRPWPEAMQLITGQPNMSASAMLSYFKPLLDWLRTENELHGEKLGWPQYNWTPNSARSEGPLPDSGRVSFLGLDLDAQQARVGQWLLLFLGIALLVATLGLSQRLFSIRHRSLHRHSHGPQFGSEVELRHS

Turning to `CC(C)C[C@H](NC(=O)[C@@H](N)C(C)C)C(=O)O` (H-Val-Leu-OH), in assay [1], the Log 1/T was determined as 2.
Take `CC[C@H](C)[C@H](N)C(=O)N[C@H](C(=O)O)C(C)O` (single isomer, unassigned): in assay [1], the Log 1/T turned out to be 1.49.
Turning to `CC(C)C[C@H](NC(=O)CN)C(=O)O`, in assay [1], the Log 1/T was 1.68. Also, in assay [2], the IC50 is 2510 µM.
`CC(C)[C@H](NC(=O)[C@@H](Cc1c[nH]c2ccccc12)NC(=O)[C@@H](Cc1c[nH]c2ccccc12)NC(=O)[C@@H](N)CC(=O)O)C(=O)N[C@H](Cc1c[nH]c2ccccc12)C(=O)N[C@H](Cc1c[nH]c2ccccc12)C(=O)N[C@@H](CCCN=C(N)N)C(=O)O`: the results for the Kb on Substance-K receptor [3], at Substance-K receptor [4] and on Substance-K receptor [5] were 2.4 µM, 31.6 µM and 100 µM, respectively.
Consider `CC(C)[C@H](NC(=O)[C@@H](Cc1c[nH]c2ccccc12)NC(=O)[C@H](Cc1ccc(O)cc1)NC(=O)[C@@H](N)CC(=O)O)C(=O)N[C@H](Cc1c[nH]c2ccccc12)C(=O)N[C@H](Cc1c[nH]c2ccccc12)C(=O)N[C@H](Cc1c[nH]c2ccccc12)C(=O)O`, for which the figures for the Kb at Substance-K receptor [3], at Substance-K receptor [4] and at Substance-K receptor [5] were 0.155 µM, 1.38 µM and 1.62 µM, respectively.
Taken in the same sequence, the figures for H-DYPVWWR-OH were 4.37 µM, 17.4 µM and 12.9 µM.
On to `CC(C)C[C@H](NC(=O)[C@@H](Cc1c[nH]c2ccccc12)NC(=O)[C@@H](NC(=O)[C@@H](Cc1c[nH]c2ccccc12)NC(=O)[C@H](Cc1ccc(O)cc1)NC(=O)[C@@H](N)CC(=O)O)C(C)C)C(=O)N[C@@H](CCCN=C(N)N)C(=O)O`, for which the Kb at Substance-K receptor [3] is 0.224 µM; on Substance-K receptor [4], 0.646 µM; on Substance-K receptor [5], 0.191 µM.
Take `NCC(=O)N[C@@H](Cc1ccccc1)C(=O)O` (H-Gly-Phe-OH): in assay [1], the Log 1/T was determined as 1.8. Moreover, the IC50 in assay [2] was 631 µM.
For `CC(C)[C@H](NC(=O)[C@@H](Cc1c[nH]c2ccccc12)NC(=O)[C@H](Cc1ccc(O)cc1)NC(=O)[C@@H](N)CC(=O)O)C(=O)N[C@H](Cc1c[nH]c2ccccc12)C(=O)N[C@H](Cc1c[nH]c2ccccc12)C(=O)N[C@@H](CCCN=C(N)N)C(=O)O`, the Kb is 0.251 µM at Substance-K receptor [3], 1.58 µM on Substance-K receptor [4] and 0.0224 µM on Substance-K receptor [5].
Turning to `CC(C)[C@H](NC(=O)[C@H](Cc1c[nH]c2ccccc12)NC(=O)[C@H](Cc1ccc(O)cc1)NC(=O)[C@@H](N)CC(=O)O)C(=O)N[C@H](Cc1c[nH]c2ccccc12)C(=O)N[C@H](Cc1c[nH]c2ccccc12)C(=O)N[C@@H](CCCN=C(N)N)C(=O)O`, the results for the Kb on Substance-K receptor [3], at Substance-K receptor [4] and at Substance-K receptor [5] were 25.7 µM, 15.5 µM and 100 µM, respectively.
In the same order, the values of `CSCC[C@H](NC(=O)[C@H](CC(C)C)NC(=O)CNC(=O)[C@@H](Cc1c[nH]c2ccccc12)NC(=O)[C@H](Cc1ccccc1)NC(=O)[C@H](Cc1ccc(O)cc1)NC(=O)[C@@H](N)CC(=O)O)C(=O)O` are 14.1 µM, 14.8 µM and 100 µM.
Taken in the same sequence, the figures for `CC(C)[C@H](NC(=O)[C@@H](Cc1c[nH]c2ccccc12)NC(=O)[C@H](Cc1ccc(O)cc1)NC(=O)[C@@H](N)CC(=O)O)C(=O)N[C@H](Cc1c[nH]c2ccccc12)C(=O)N[C@H](Cc1c[nH]c2ccccc12)C(=O)NCC(=O)O` were 0.0347 µM, 0.141 µM and 1.48 µM.
In the same order, the values of `CSCC[C@H](NC(=O)[C@@H](Cc1c[nH]c2ccccc12)NC(=O)[C@@H](Cc1c[nH]c2ccccc12)NC(=O)[C@@H](NC(=O)[C@@H](Cc1c[nH]c2ccccc12)NC(=O)[C@H](Cc1ccc(O)cc1)NC(=O)[C@@H](N)CC(=O)O)C(C)C)C(=O)O` are 0.38 µM, 1.45 µM and 0.0891 µM.
Consider `CC(C)[C@H](NC(=O)[C@@H](Cc1c[nH]c2ccccc12)NC(=O)[C@H](Cc1ccc(O)cc1)NC(=O)[C@@H](N)CC(N)=O)C(=O)N[C@H](Cc1c[nH]c2ccccc12)C(=O)N[C@H](Cc1c[nH]c2ccccc12)C(=O)N[C@@H](CCCN=C(N)N)C(=O)O`, for which the Kb on Substance-K receptor [3] is 0.347 µM; on Substance-K receptor [4] it was 1.17 µM; at Substance-K receptor [5] it was 0.0646 µM.
As to `CC(C)[C@@H](NC(=O)[C@@H](Cc1c[nH]c2ccccc12)NC(=O)[C@@H](Cc1ccc(O)cc1)NC(=O)[C@@H](N)CC(=O)O)C(=O)NCC(=O)N[C@H](Cc1c[nH]c2ccccc12)C(=O)N[C@H](CCCN=C(N)N)C(=O)O`, the Kb was 0.38 µM at Substance-K receptor [3], 0.562 µM on Substance-K receptor [4] and 0.263 µM at Substance-K receptor [5].
For the molecule `CC(C)[C@@H](NC(=O)[C@@H](Cc1c[nH]c2ccccc12)NC(=O)[C@@H](Cc1ccc(O)cc1)NC(=O)[C@@H](N)CC(=O)O)C(=O)N[C@H](Cc1c[nH]c2ccccc12)C(=O)N[C@H](Cc1c[nH]c2ccccc12)C(=O)N[C@H](CCCN=C(N)N)C(=O)O`, the Kb at Substance-K receptor [3] was 0.851 µM; on Substance-K receptor [4], 1.1 µM; on Substance-K receptor [5] it was 0.407 µM.
Take `C[C@H](NC(=O)[C@@H](Cc1c[nH]c2ccccc12)NC(=O)[C@H](Cc1ccc(O)cc1)NC(=O)[C@@H](N)CC(=O)O)C(=O)N[C@H](Cc1c[nH]c2ccccc12)C(=O)N[C@H](Cc1c[nH]c2ccccc12)C(=O)N[C@@H](CCCCN)C(=O)O`: the Kb at Substance-K receptor [3] was 0.295 µM; on Substance-K receptor [4], 0.355 µM; on Substance-K receptor [5], 1.35 µM.
In the same order, the values of `CC(C)[C@H](NC(=O)[C@@H](Cc1c[nH]c2ccccc12)NC(=O)[C@H](Cc1ccc(O)cc1)NC(=O)[C@@H](N)CC(=O)O)C(=O)N[C@H](Cc1c[nH]c2ccccc12)C(=O)N[C@H](Cc1c[nH]c2ccccc12)C(=O)N[C@@H](Cc1ccccc1)C(=O)O` are 0.288 µM, 0.933 µM and 1.26 µM.
`C[C@H](N)C(=O)N[C@@H](Cc1ccccc1)C(=O)O` yielded a Log 1/T in assay [1] of 1.72. Also, the IC50 in assay [2] was 191 µM.
For the molecule `CC(C)[C@H](NC(=O)[C@@H](Cc1c[nH]c2ccccc12)NC(=O)[C@H](Cc1ccc(O)cc1)NC(=O)[C@@H](N)CC(=O)O)C(=O)N[C@H](Cc1c[nH]c2ccccc12)C(=O)N[C@H](Cc1c[nH]c2ccccc12)C(=O)N[C@@H](CCC(=O)O)C(=O)O`, the Kb at Substance-K receptor [3] is 0.0309 µM; at Substance-K receptor [4], 0.427 µM; on Substance-K receptor [5], 2.63 µM.
Taken in the same sequence, the figures for `CC(C)[C@H](NC(=O)[C@@H](Cc1c[nH]c2ccccc12)NC(=O)[C@H](Cc1ccc(O)cc1)NC(=O)[C@@H](N)CC(=O)O)C(=O)NCC(=O)N[C@H](Cc1c[nH]c2ccccc12)C(=O)N[C@@H](CCCN=C(N)N)C(=O)O` were 18.6 µM, 6.31 µM and 19.5 µM.
For the molecule `CC(C)[C@H](NC(=O)[C@@H](Cc1c[nH]c2ccccc12)NC(=O)[C@H](Cc1c[nH]c2ccccc12)NC(=O)[C@@H](N)CC(=O)O)C(=O)N[C@H](Cc1c[nH]c2ccccc12)C(=O)N[C@H](Cc1c[nH]c2ccccc12)C(=O)N[C@@H](CCCN=C(N)N)C(=O)O`, the Kb on Substance-K receptor [3] was 0.339 µM; on Substance-K receptor [4], 11.2 µM; on Substance-K receptor [5] it was 6.31 µM.
In assay [1], `CCC(C)[C@H](NC(=O)[C@@H](N)[C@@H](C)CC)C(=O)O` (single isomer, unassigned) registered a Log 1/T of 2.26.
With `CSCC[C@H](NC(=O)[C@@H](Cc1c[nH]c2ccccc12)NC(=O)[C@@H](Cc1c[nH]c2ccccc12)NC(=O)[C@@H](NC(=O)[C@@H](Cc1c[nH]c2ccccc12)NC(=O)[C@H](CO)NC(=O)[C@@H](N)CC(=O)O)C(C)C)C(=O)O`, the Kb on Substance-K receptor [3] was 1.95 µM; on Substance-K receptor [4], 6.46 µM; at Substance-K receptor [5] it was 4.79 µM.
Taken in the same sequence, the figures for H-DYYVYYR-OH were 9.33 µM, 100 µM and 100 µM.
In the same order, the values of `CC(C)[C@H](NC(=O)[C@@H](Cc1c[nH]c2ccccc12)NC(=O)[C@H](Cc1ccc(O)cc1)NC(=O)[C@@H](N)CC(=O)O)C(=O)N[C@H](Cc1c[nH]c2ccccc12)C(=O)N[C@H](Cc1c[nH]c2ccccc12)C(=O)N[C@@H](Cc1ccc(O)cc1)C(=O)O` are 0.191 µM, 1.74 µM and 100 µM.
In the same order, the values of `CSCC[C@H](NC(=O)[C@H](CC(C)C)NC(=O)CNC(=O)[C@@H](Cc1c[nH]c2ccccc12)NC(=O)[C@H](Cc1ccccc1)NC(=O)[C@@H](Cc1c[nH]c2ccccc12)NC(=O)[C@@H](N)CC(=O)O)C(=O)O` are 7.76 µM, 9.12 µM and 5.89 µM.
